Experimental findings from ChEMBL document CHEMBL4622851, “Cytotoxicity of 4-substituted quinoline derivatives: Anticancer and antileishmanial potential” (Bioorg Med Chem, 2020) are described below.

A word on the EC50: it is the concentration that produces a half-maximal response. In general, IC50 refers to the midpoint of a concentration-inhibition curve. Read a high IC50 as weaker potency. By Ki is commonly meant the equilibrium dissociation constant of an inhibitor or competing ligand from its target.

In assay [1] the test system is SK-MEL-147. In words: Cytotoxicity against human SK-MEL-147 cells assessed as reduction in cell viability at 50 and 100 uM after 24 hrs by MTT assay. The format is functional, cell-based. In general terms: Formazan colour is commonly taken as a measure of viable cells.
Assay [2] deals with Jurkat. In words: Cytotoxicity against human Jurkat cells assessed as reduction in cell viability at 50 and 100 uM after 24 hrs by MTT assay. In kind it is functional, cell-based.
Assay [3] concerns SK-MEL-147. In words: Cytotoxicity against human SK-MEL-147 cells assessed as reduction in cell viability after 24 hrs by MTT assay. The format is functional, cell-based. As to conditions: SK-MEL-147, 24 h.
Assay [4] relates to Jurkat. In words: Cytotoxicity against human Jurkat cells assessed as reduction in cell viability after 24 hrs by MTT assay. In kind it is functional, cell-based.
Assay [5] deals with T1, Cysteine proteinase B (Leishmania mexicana, UniProt P36400). In words: Inhibition of Leishmania mexicana rCPB2.8 using Z-FR-AMC as substrate by spectrofluorometric analysis.
T1 sequence (P36400 whole entry): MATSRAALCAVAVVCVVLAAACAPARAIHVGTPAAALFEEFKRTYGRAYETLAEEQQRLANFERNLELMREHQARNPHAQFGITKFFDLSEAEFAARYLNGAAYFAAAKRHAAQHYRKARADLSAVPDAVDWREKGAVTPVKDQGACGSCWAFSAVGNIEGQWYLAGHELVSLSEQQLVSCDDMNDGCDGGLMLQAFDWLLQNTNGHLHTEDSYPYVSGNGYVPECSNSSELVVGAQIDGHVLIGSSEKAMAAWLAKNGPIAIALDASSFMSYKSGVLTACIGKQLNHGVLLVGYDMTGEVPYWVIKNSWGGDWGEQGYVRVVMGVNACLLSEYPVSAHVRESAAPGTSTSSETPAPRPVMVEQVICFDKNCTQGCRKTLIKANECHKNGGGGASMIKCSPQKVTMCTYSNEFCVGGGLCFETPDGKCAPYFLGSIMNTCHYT
Assay [6] can be described thus: Inhibition of Leishmania mexicana rCPB3.0 using Z-FR-AMC as substrate by spectrofluorometric analysis.
The nature of assay [7]: Inhibition of Leishmania mexicana rCPB3.0 H84Y mutant using Z-FR-AMC as substrate by spectrofluorometric analysis.
In assay [8] the target is T1, Cysteine proteinase B. In words: Inhibition of Leishmania mexicana rCPB2.8 assessed as inhibition constant using Z-FR-AMC as substrate preincubated for 10 mins followed by substrate addition by Lineweaver-Burk double reciprocal plot analysis.
Assay [9] in a line: Inhibition of Leishmania mexicana rCPB3.0 assessed as inhibition constant using Z-FR-AMC as substrate preincubated for 10 mins followed by substrate addition by Lineweaver-Burk double reciprocal plot analysis.
Assay [10] in a line: Inhibition of Leishmania mexicana rCPB3.0 H84Y mutant assessed as inhibition constant using Z-FR-AMC as substrate preincubated for 10 mins followed by substrate addition by Lineweaver-Burk double reciprocal plot analysis.
Assay [11] concerns the target Cysteine proteinase B (Leishmania mexicana) (UniProt P36400). In words: Inhibition of Leishmania mexicana rCPB2.8 assessed as inhibition constant for uncompetitive inhibition using Z-FR-AMC as substrate preincubated for 10 mins followed by substrate addition by Lineweaver-Burk double reciprocal plot analysis.
Assay [12] deals with Leishmania mexicana. In words: Inhibition of Leishmania mexicana rCPB3.0 assessed as inhibition constant for uncompetitive inhibition using Z-FR-AMC as substrate preincubated for 10 mins followed by substrate addition by Lineweaver-Burk double reciprocal plot analysis.
The subject of assay [13] is Leishmania mexicana. In words: Inhibition of Leishmania mexicana rCPB3.0 H84Y mutant assessed as inhibition constant for uncompetitive inhibition using Z-FR-AMC as substrate preincubated for 10 mins followed by substrate addition by Lineweaver-Burk double reciprocal plot analysis.
The test system of assay [14] is SK-MEL-147. In words: Cytotoxicity against human SK-MEL-147 cells assessed as reduction in cell viability at EC50 concentration preincubated for 1 hr in presence of GSH measured after 24 hrs by MTT assay. In kind it is functional, cell-based.
In assay [15] the test system is SK-MEL-147. In words: Induction of apoptosis in human SK-MEL-147 cells assessed as early apoptotic cells at 20 uM after 24 hrs by Annexin V-FITC/propidium iodide staining based flow cytometry. The format is functional, cell-based. (In general: A flow cytometer gives signals particle by particle.)
In assay [16] the test system is SK-MEL-147. In words: Induction of apoptosis in human SK-MEL-147 cells assessed as late apoptotic cells at 20 uM after 24 hrs by Annexin V-FITC/propidium iodide staining based flow cytometry. The format is functional, cell-based.
Assay [17] relates to SK-MEL-147. In words: Induction of apoptosis in human SK-MEL-147 cells assessed as necrotic cells at 20 uM after 24 hrs by Annexin V-FITC/propidium iodide staining based flow cytometry. The format is functional, cell-based.
Assay [18] has as its system SK-MEL-147. In words: Induction of apoptosis in human SK-MEL-147 cells assessed as mitochondrial membrane potential dissipation after 24 hrs by TMRM staining based fluorescence microscopic method. The format is functional, cell-based.
Assay [19] has as its system SK-MEL-147. In words: Induction of apoptosis in human SK-MEL-147 cells assessed as increase in reactive oxygen species generation by CM-H2DCFDA staining based flow cytometric analysis. The format is functional, cell-based.
The subject of assay [20] is SK-MEL-147. In words: Induction of apoptosis in human SK-MEL-147 cells assessed mitochondrial permeabilization after 24 hrs by mitotracker green staining based microscopic analysis. The format is functional, cell-based.
For assay [21], the system named is SK-MEL-147. In words: Cytotoxicity against human SK-MEL-147 cells assessed as reduction in cell viability at EC50 concentration preincubated for 1 hr in presence of DTT measured after 24 hrs by MTT assay. In kind it is functional, cell-based.
Assay [22] concerns SK-MEL-147. In words: Cytotoxicity against human SK-MEL-147 cells assessed as reduction in cell viability at EC50 concentration preincubated for 1 hr in presence of N-acetyl cysteine measured after 24 hrs by MTT assay. In kind it is functional, cell-based.
In assay [23] the test system is SK-MEL. In words: Cytotoxicity against human SK-MEL-147 cells assessed as reduction in cell viability at EC50 concentration preincubated for 1 hr in presence of EGTA measured after 24 hrs by MTT assay. The format is functional, cell-based.
Assay [24] relates to SK-MEL. In words: Cytotoxicity against human SK-MEL-147 cells assessed as reduction in cell viability at EC50 concentration preincubated for 1 hr in presence of BAPTA measured after 24 hrs by MTT assay. The format is functional, cell-based.
Assay [25] relates to SK-MEL-147. In words: Cytotoxicity against human SK-MEL-147 cells assessed as reduction in cell viability at EC50 concentration preincubated for 1 hr in presence of Boc-D-FMK measured after 24 hrs by MTT assay. The format is functional, cell-based.
Assay [26] has as its system SK-MEL-147. In words: Cytotoxicity against human SK-MEL-147 cells assessed as reduction in cell viability at EC50 concentration preincubated for 1 hr in presence of E-64 measured after 24 hrs by MTT assay. The format is functional, cell-based.
Assay [27] is filed under the species Rattus norvegicus. In words: Induction of mitochondrial permeabilization in rat liver mitochondria assessed as mitochondrial transmembrane potential dissipation by rhodamine-123 dye based spectrofluorometer analysis. In kind it is functional.
For assay [28], the species on record is Rattus norvegicus. In words: Induction of mitochondrial permeabilization in rat liver mitochondria assessed as calcium efflux by calcium green based spectrofluorometer analysis. The format is functional.
For assay [29], the species on record is Rattus norvegicus. In words: Induction of mitochondrial permeabilization in rat liver mitochondria assessed as mitochondrial transmembrane potential dissipation in presence of DTT by rhodamine-123 dye based spectrofluorometer analysis. The format is functional.
For assay [30], the species on record is Rattus norvegicus. In words: Induction of mitochondrial permeabilization in rat liver mitochondria assessed as mitochondrial transmembrane potential dissipation in presence of CsA by rhodamine-123 dye based spectrofluorometer analysis. In kind it is functional.
Assay [31] is filed under the species Rattus norvegicus. In words: Induction of mitochondrial permeabilization in rat liver mitochondria assessed as mitochondrial transmembrane potential dissipation in presence of ADP by rhodamine-123 dye based spectrofluorometer analysis. In kind it is functional.
The species entered for assay [32] is Rattus norvegicus. In words: Induction of mitochondrial permeabilization in rat liver mitochondria assessed as calcium efflux in presence of DTT by calcium green based spectrofluorometer analysis. In kind it is functional.
For assay [33], the species on record is Rattus norvegicus. In words: Induction of mitochondrial permeabilization in rat liver mitochondria assessed as calcium efflux in presence of CsA by calcium green based spectrofluorometer analysis. In kind it is functional.
For assay [34], the species on record is Rattus norvegicus. In words: Induction of mitochondrial permeabilization in rat liver mitochondria assessed as calcium efflux in presence of ADP by calcium green based spectrofluorometer analysis. In kind it is functional.
The test system of assay [35] is SK-MEL-147. In words: Induction of apoptosis in human SK-MEL-147 cells assessed as increase in BAX expression at 20 uM after 24 hrs by western blotting analysis. In kind it is functional, cell-based. For orientation: Immunoblotting shows a protein as a band on a membrane.
For assay [36], the system named is SK-MEL-147. In words: Induction of apoptosis in human SK-MEL-147 cells assessed as effect on BCL-2 protein expression at 20 uM after 24 hrs by western blotting analysis. In kind it is functional, cell-based.
Assay [37] deals with SK-MEL-147. In words: Cytotoxicity against human SK-MEL-147 cells assessed as reduction in cell viability in presence of BCL2 inhibitor venetoclax. The format is functional, cell-based.
The target of a further assay is Cathepsin B (Homo sapiens, UniProt P07858). In words: Inhibition of cathepsin B (unknown origin) using Z-FR-AMC as substrate by spectrofluorometric analysis.
A further assay deals with Procathepsin L (Homo sapiens, UniProt P07711). In words: Inhibition of cathepsin L (unknown origin) using Z-FR-AMC as substrate by spectrofluorometric analysis.
Sequence of Procathepsin L (P07711 whole entry): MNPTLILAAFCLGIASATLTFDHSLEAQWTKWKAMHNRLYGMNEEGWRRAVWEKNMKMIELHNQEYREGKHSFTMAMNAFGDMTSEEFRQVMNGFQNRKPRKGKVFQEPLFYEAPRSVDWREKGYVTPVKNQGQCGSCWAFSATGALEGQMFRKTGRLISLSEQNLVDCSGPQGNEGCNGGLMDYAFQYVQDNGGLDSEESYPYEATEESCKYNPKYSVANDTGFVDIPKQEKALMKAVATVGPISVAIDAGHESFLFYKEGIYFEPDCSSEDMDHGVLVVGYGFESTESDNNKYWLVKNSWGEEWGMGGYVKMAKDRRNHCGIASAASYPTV

Each structure is given as a SMILES string. Calls of active or inactive are those of the source. The rule behind the calls is not given here.

Sequence of Cysteine proteinase B (Leishmania mexicana) (P36400 126-443 limits assumed): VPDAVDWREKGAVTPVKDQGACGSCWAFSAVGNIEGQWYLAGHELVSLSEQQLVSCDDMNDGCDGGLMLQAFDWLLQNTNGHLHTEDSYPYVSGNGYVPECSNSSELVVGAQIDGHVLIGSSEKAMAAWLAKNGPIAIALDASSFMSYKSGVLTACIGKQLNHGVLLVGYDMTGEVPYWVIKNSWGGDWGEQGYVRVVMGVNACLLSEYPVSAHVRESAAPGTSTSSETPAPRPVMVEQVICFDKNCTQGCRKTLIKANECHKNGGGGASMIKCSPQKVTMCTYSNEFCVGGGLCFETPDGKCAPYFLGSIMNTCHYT

`COc1ccc([Se]c2cc(-c3ccc(O)cc3)nc3ccc(OC)cc23)cc1`: the result in the assay with SK-MEL-147 [1] and in the assay on Jurkat [2] was Active. For the same compound, the EC50 in the assay with SK-MEL-147 [3] came to 59.2 µM; in the assay with Jurkat [4], 41.5 µM. Further, the IC50 against Cysteine proteinase B [5] was 3.6 µM; in assay [6] it was 5.78 µM; in assay [7] it was 12.4 µM. The Ki came out at 21.7 µM on Cysteine proteinase B [8], 18.5 µM in assay [9] and 18.3 µM in assay [10]. Besides, the alphaKi in assay [11] was 22.1 µM; with Leishmania mexicana [12], 18.6 µM; in the assay with Leishmania mexicana [13] it was 18.4 µM.

Turning to `CCOC(=O)c1cc([Se]c2ccccc2)c2cc(C)ccc2n1`, the result in the assay with SK-MEL-147 [14], in the assay on SK-MEL-147 [21], in the assay on SK-MEL-147 [22], in the assay with SK-MEL [23], in the assay on SK-MEL [24] and in the assay filed under Rattus norvegicus [29] was inactive. Also, the result in the assay filed under Rattus norvegicus [30], in the assay listed under Rattus norvegicus [31], in the assay listed under Rattus norvegicus [32], in the assay filed under Rattus norvegicus [33], in the assay listed under Rattus norvegicus [34] and with SK-MEL-147 [36] was inactive. The outcome in the assay on SK-MEL-147 [1], in the assay with Jurkat [2], in the assay on SK-MEL-147 [15], with SK-MEL-147 [16], with SK-MEL-147 [17] and with SK-MEL-147 [18] was Active. In addition, the result in the assay on SK-MEL-147 [19], in the assay on SK-MEL-147 [20], in the assay with SK-MEL-147 [25], with SK-MEL-147 [26], in the assay filed under Rattus norvegicus [27] and in the assay listed under Rattus norvegicus [28] was Active. In addition, the outcome with SK-MEL-147 [35] and in the assay on SK-MEL-147 [37] was Active. In addition, the results for the EC50 in the assay on SK-MEL-147 [3] and in the assay on Jurkat [4] were 12 µM and 15.3 µM, respectively. The IC50 entry at Cathepsin B and on Procathepsin L was “Not Active” throughout.
